Measurements taken from PubChem BioAssay AID192 (DTP/NCI, 2004).
Where “and” joins values, the source holds several entries; their conditions need not be identical. Identical values can stand only once. Inconclusive results and toxic doses are left out.

Tested on: BDF1 mice, B16 melanoma ip, median survival T/C
Assay: NCI In Vivo Anticancer Drug Screen. Data for tumor model B16 Melanoma (intraperitoneal) in B6D2F1 (BDF1) mice
Details: endpoint: median survival time, higher = longer survival
How it was run: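 Tumor-bearing mice received test compound or vehicle. Survival or tumor size was then measured in both groups. The treated-group figure was divided by the control-group figure.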

[1] = dose: 50.0 mg/kg/injection, schedule: Q01DX009 (ip), vehicle: Klucel (hydroxypropylcellulose) (HPC)
[2] = dose: 100.0 mg/kg/injection, schedule: Q01DX009 (ip), vehicle: Klucel (hydroxypropylcellulose) (HPC)
[3] = dose: 200.0 mg/kg/injection, schedule: Q01DX009 (ip), vehicle: Klucel (hydroxypropylcellulose) (HPC)
[4] = dose: 12.5 mg/kg/injection, schedule: Q01DX009 (ip), vehicle: saline
[5] = dose: 25.0 mg/kg/injection, schedule: Q01DX009 (ip), vehicle: saline
[6] = dose: 12.5 mg/kg/injection, schedule: Q01DX009 (ip), vehicle: saline with Tween-80
[7] = dose: 25.0 mg/kg/injection, schedule: Q01DX009 (ip), vehicle: saline with Tween-80
[8] = dose: 50.0 mg/kg/injection, schedule: Q01DX009 (ip), vehicle: saline with Tween-80
[9] = dose: 100.0 mg/kg/injection, schedule: Q01DX009 (ip), vehicle: saline with Tween-80
[10] = dose: 200.0 mg/kg/injection, schedule: Q01DX009 (ip), vehicle: saline with Tween-80

O=C(/C=C/c1cccc2ccccc12)c1ccc(Cl)cc1
T/C [1]: 92 % of control | T/C (dose: 50.0 mg/kg/injection, schedule: Q04DX003 (ip), vehicle: Klucel (hydroxypropylcellulose) (HPC)): 103 % of control | T/C [2]: 96 % of control | T/C (dose: 100.0 mg/kg/injection, schedule: Q04DX003 (ip), vehicle: Klucel (hydroxypropylcellulose) (HPC)): 100 % of control | T/C [3]: 92 % of control | T/C (dose: 200.0 mg/kg/injection, schedule: Q04DX003 (ip), vehicle: Klucel (hydroxypropylcellulose) (HPC)): 93 % of control

CCCCN(c1ccccc1)c1ncnc2c1cnn2C
T/C (dose: 100.0 mg/kg/injection, schedule: Q04DX003 (ip), vehicle: saline with Tween-80): 100 % of control | T/C (dose: 200.0 mg/kg/injection, schedule: Q04DX003 (ip), vehicle: saline with Tween-80): 102 % of control | T/C (dose: 400.0 mg/kg/injection, schedule: Q04DX003 (ip), vehicle: saline with Tween-80): 100 % of control

NC(=O)c1cc2c(N)[nH]nc2nc1N
T/C (dose: 6.25 mg/kg/injection, schedule: Q01DX009 (ip), vehicle: saline): 106 % of control | T/C [4]: 100 % of control | T/C [5]: 95 % of control

CCC(C)C1NC(=O)C(NC(=O)c2c3[nH]c4c(C(=O)NC5C(=O)NC(C(C)CC)C(=O)N6CCCC6C(=O)N(C)CC(=O)N(C)C(C(C)C)C(=O)OC5C)ccc(C)c4oc-3c(C)c(=O)c2=O)C(C)OC(=O)C(C(C)C)N(C)C(=O)CN(C)C(=O)C2CCCN2C1=O (stereo not given)
T/C (dose: 0.05 mg/kg/injection, schedule: Q01DX009 (ip), vehicle: water): 98 % of control | T/C (dose: 0.1 mg/kg/injection, schedule: Q01DX009 (ip), vehicle: water): 102 % of control | T/C (dose: 0.2 mg/kg/injection, schedule: Q01DX009 (ip), vehicle: water): 97 % of control | T/C (dose: 0.4 mg/kg/injection, schedule: Q01DX009 (ip), vehicle: water): 103 % of control | T/C (dose: 0.8 mg/kg/injection, schedule: Q01DX009 (ip), vehicle: water): 100 % of control | T/C (dose: 1.6 mg/kg/injection, schedule: Q01DX009 (ip), vehicle: water): 101 % of control

CNCC(O)c1cccc(O)c1 (stereo not given)
T/C (dose: 1.56 mg/kg/injection, schedule: Q01DX009 (ip), vehicle: saline): 111 % of control | T/C (dose: 3.12 mg/kg/injection, schedule: Q01DX009 (ip), vehicle: saline): 117 % of control | T/C [4]: 108 % of control | T/C [5]: 105 % of control | T/C (dose: 50.0 mg/kg/injection, schedule: Q01DX009 (ip), vehicle: saline): 95 % of control

CS(=O)(=O)c1ccnc2ccccc12
T/C [1]: 91 % of control | T/C [2]: 90 % of control

O=C(CCCN1CCN(c2ccccn2)CC1)c1ccc(F)cc1
T/C (dose: 0.19 mg/kg/injection, schedule: Q01DX009 (ip), vehicle: Klucel (hydroxypropylcellulose) (HPC)): 93 % of control | T/C (dose: 0.39 mg/kg/injection, schedule: Q01DX009 (ip), vehicle: Klucel (hydroxypropylcellulose) (HPC)): 89 % of control | T/C (dose: 0.78 mg/kg/injection, schedule: Q01DX009 (ip), vehicle: Klucel (hydroxypropylcellulose) (HPC)): 110 % of control | T/C (dose: 1.56 mg/kg/injection, schedule: Q01DX009 (ip), vehicle: Klucel (hydroxypropylcellulose) (HPC)): 92 % of control | T/C (dose: 3.12 mg/kg/injection, schedule: Q01DX009 (ip), vehicle: Klucel (hydroxypropylcellulose) (HPC)): 88 % of control

CCCCCCCCCCCCNCCC#N
T/C (dose: 6.25 mg/kg/injection, schedule: Q01DX009 (ip), vehicle: saline with Tween-80): 100 % of control | T/C [6]: 92 % of control | T/C [7]: 91 % of control and 100 % of control | T/C [8]: 89 % of control

CS(=O)(=O)OCC(O)C(O)COS(C)(=O)=O (stereo not given)
T/C [8]: 100 % of control | T/C [9]: 102 % of control | T/C [10]: 103 % of control and 114 % of control | T/C (dose: 800.0 mg/kg/injection, schedule: Q01DX009 (ip), vehicle: saline with Tween-80): 153 % of control

CC1=C/C(=N\NS(=O)(=O)c2ccc([N+](=O)[O-])cc2)CC(C)(C)C1
T/C [1]: 94 % of control | T/C [2]: 93 % of control | T/C [3]: 96 % of control | T/C (dose: 400.0 mg/kg/injection, schedule: Q01DX009 (ip), vehicle: Klucel (hydroxypropylcellulose) (HPC)): 88 % of control

Oc1c(Br)cc(Br)cc1/C=N/N=C/c1cc(Br)cc(Br)c1O
T/C [2]: 90 % of control | T/C [3]: 87 % of control

N=C(N)c1ccc(N=NNc2ccc(C(=N)N)cc2)cc1
T/C [6]: 101 % of control | T/C [7]: 112 % of control | T/C [8]: 114 % of control

Cc1cc2ncn(CO)c2cc1C
T/C [9]: 102 % of control | T/C [10]: 97 % of control | T/C (dose: 400.0 mg/kg/injection, schedule: Q01DX009 (ip), vehicle: saline with Tween-80): 97 % of control
